In patent US20170190671A1, “BIS(ARYL)CATECHOL DERIVATIVES AS HERBICIDES” (E I DU PONT DE NEMOURS AND COMPANY, priority 2014, published 2017):

Tests used:
Assay in all cases: Test C preemergence
Type in all cases: in vivo
Conditions in all cases: scale 0 to 100
[1] = test system: Italian ryegrass (Lolium multiflorum)
In short: (§1)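 0-100 visual injury score (100 = complete control), assessed at 13-15 d after treatment against controls; surfactant-containing solvent formulation applied preemergence to seeded loam-sand soil or sprayed onto 1- to 4-leaf greenhouse plants.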

[2] = test system: blackgrass (Alopecurus myosuroides)
In short: as §1

[3] = test system: corn (Zea mays)
In short: as §1

[4] = test system: giant foxtail (Setaria faberii)
In short: as §1

[5] = test system: lambsquarters (Chenopodium album)
In short: as §1

[6] = test system: large (Lg) crabgrass (Digitaria sanguinalis)
In short: as §1

[7] = test system: morningglory (Ipomoea coccinea)
In short: as §1

[8] = test system: oilseed rape (Brassica napus)
In short: as §1

[9] = test system: pigweed (Amaranthus retroflexus)
In short: as §1

[10] = test system: ragweed (common ragweed, Ambrosia elatior)
In short: as §1

[11] = test system: soybean (Glycine max)
In short: as §1

[12] = test system: velvetleaf (Abutilon theophrasti)
In short: as §1

[13] = test system: waterhemp (common waterhemp, Amaranthus rudis)
In short: as §1

[14] = test system: winter wheat (Triticum aestivum)
In short: as §1

[15] = test system: yellow nutsedge (Cyperus esculentus)
In short: as §1

In the case of `FC(F)(F)c1cnc(Oc2c(Br)cccc2Oc2ncc(Cl)cn2)nc1` [Compound 24], the “Plant response rating, Ryegrass, Italian” value ([1]; 31 g ai/ha, Preemergence) is reported as 55, the “Plant response rating, Ryegrass, Italian” value ([1]; 62 g ai/ha, Preemergence) is reported as 90 and the “Plant response rating, Ryegrass, Italian” value ([1]; 125 g ai/ha, Preemergence) is reported as 95. The “Plant response rating, Ryegrass, Italian” value ([1]; 250 g ai/ha, preemergence) was 95, the “Plant response rating, Blackgrass” value ([2]; 31 g ai/ha, Preemergence) was 60 and the “Plant response rating, Blackgrass” value ([2]; 62 g ai/ha, Preemergence) was 95. The “Plant response rating, Blackgrass” value ([2]; 125 g ai/ha, Preemergence) was 95, the “Plant response rating, Blackgrass” value ([2]; 250 g ai/ha, preemergence) was 95 and the “Plant response rating, Corn” value ([3]; 31 g ai/ha, Preemergence) was 5. The “Plant response rating, Corn” value ([3]; 62 g ai/ha, Preemergence) was 20, the “Plant response rating, Corn” value ([3]; 125 g ai/ha, Preemergence) was 45 and the “Plant response rating, Corn” value ([3]; 250 g ai/ha, preemergence) was 65. For the same compound, the “Plant response rating, Foxtail, Giant” value ([4]; 31 g ai/ha, Preemergence) was 98, the “Plant response rating, Foxtail, Giant” value ([4]; 62 g ai/ha, Preemergence) was 98 and the “Plant response rating, Foxtail, Giant” value ([4]; 125 g ai/ha, Preemergence) was 100. For the same compound, the “Plant response rating, Foxtail, Giant” value ([4]; 250 g ai/ha, preemergence) was 100, the “Plant response rating, Lambsquarters” value ([5]; 31 g ai/ha, Preemergence) was 75 and the “Plant response rating, Lambsquarters” value ([5]; 62 g ai/ha, Preemergence) was 90. The “Plant response rating, Lambsquarters” value ([5]; 125 g ai/ha, Preemergence) was 98, the “Plant response rating, Lambsquarters” value ([5]; 250 g ai/ha, preemergence) was 98 and the “Plant response rating, Crabgrass, Large” value ([6]; 31 g ai/ha, Preemergence) was 100. For the same compound, the “Plant response rating, Crabgrass, Large” value ([6]; 62 g ai/ha, Preemergence) was 100, the “Plant response rating, Crabgrass, Large” value ([6]; 125 g ai/ha, Preemergence) was 100 and the “Plant response rating, Crabgrass, Large” value ([6]; 250 g ai/ha, preemergence) was 100. The “Plant response rating, Morningglory” value ([7]; 31 g ai/ha, Preemergence) was 25, the “Plant response rating, Morningglory” value ([7]; 62 g ai/ha, Preemergence) was 85 and the “Plant response rating, Morningglory” value ([7]; 125 g ai/ha, Preemergence) was 80. The “Plant response rating, Morningglory” value ([7]; 250 g ai/ha, preemergence) was 95, the “Plant response rating, Oilseed Rape” value ([8]; 31 g ai/ha, Preemergence) was 80 and the “Plant response rating, Oilseed Rape” value ([8]; 62 g ai/ha, Preemergence) was 100. For the same compound, the “Plant response rating, Oilseed Rape” value ([8]; 125 g ai/ha, Preemergence) was 100, the “Plant response rating, Oilseed Rape” value ([8]; 250 g ai/ha, preemergence) was 100 and the “Plant response rating, Pigweed” value ([9]; 31 g ai/ha, Preemergence) was 100. For the same compound, the “Plant response rating, Pigweed” value ([9]; 62 g ai/ha, Preemergence) was 100, the “Plant response rating, Pigweed” value ([9]; 125 g ai/ha, Preemergence) was 100 and the “Plant response rating, Pigweed” value ([9]; 250 g ai/ha, preemergence) was 100. For the same compound, the “Plant response rating, Ragweed” value ([10]; 31 g ai/ha, Preemergence) was 10, the “Plant response rating, Ragweed” value ([10]; 62 g ai/ha, Preemergence) was 10 and the “Plant response rating, Ragweed” value ([10]; 125 g ai/ha, Preemergence) was 30. For the same compound, the “Plant response rating, Ragweed” value ([10]; 250 g ai/ha, preemergence) was 80, the “Plant response rating, Soybean” value ([11]; 62 g ai/ha, Preemergence) was 40 and the “Plant response rating, Soybean” value ([11]; 125 g ai/ha, Preemergence) was 50. For the same compound, the “Plant response rating, Soybean” value ([11]; 250 g ai/ha, preemergence) was 85, the “Plant response rating, Velvetleaf” value ([12]; 31 g ai/ha, Preemergence) was 40 and the “Plant response rating, Velvetleaf” value ([12]; 62 g ai/ha, Preemergence) was 85. For the same compound, the “Plant response rating, Velvetleaf” value ([12]; 125 g ai/ha, Preemergence) was 90, the “Plant response rating, Velvetleaf” value ([12]; 250 g ai/ha, preemergence) was 90 and the “Plant response rating, Waterhemp” value ([13]; 31 g ai/ha, Preemergence) was 100. For the same compound, the “Plant response rating, Waterhemp” value ([13]; 62 g ai/ha, Preemergence) was 100, the “Plant response rating, Waterhemp” value ([13]; 125 g ai/ha, Preemergence) was 100 and the “Plant response rating, Waterhemp” value ([13]; 250 g ai/ha, preemergence) was 100. The “Plant response rating, Wheat” value ([14]; 31 g ai/ha, Preemergence) was 15, the “Plant response rating, Wheat” value ([14]; 62 g ai/ha, Preemergence) was 30 and the “Plant response rating, Wheat” value ([14]; 125 g ai/ha, Preemergence) was 60. For the same compound, the “Plant response rating, Wheat” value ([14]; 250 g ai/ha, preemergence) was 90, the “Plant response rating, Nutsedge, Yellow” value ([15]; 31 g ai/ha, Preemergence) was 10 and the “Plant response rating, Nutsedge, Yellow” value ([15]; 62 g ai/ha, Preemergence) was 10. The “Plant response rating, Nutsedge, Yellow” value ([15]; 125 g ai/ha, Preemergence) was 30 and the “Plant response rating, Nutsedge, Yellow” value ([15]; 250 g ai/ha, preemergence) was 60.
